According to US6531598B1, “Naphthostyrils” (Hoffmann-La Roche Inc., priority 2001, dated 2003):

Tests used:
[1] = tested on: MDA-MB435 breast carcinoma cell line; test: Tetrazolium dye proliferation assay, MDA-MB435; assay type: cell-based; settings: Homo sapiens, MDA-MB-435, 120 h; MTT, 5 days post addition of test compound, 2000 cells per well
Description: (§1) The cell lines used were MDA-MB435, a breast carcinoma dell line and RKO, a colon carcinoma cell line.
(§2) Teh estrogen receptor negative epithelial breast carcinoma line (MDA-MB435) was purchased from American Type Cell Culture Collection (ATCC; Rockville, Md.) and was grown in the medium recommended by ATCC. For analysis of the test compounds on growth of these cells, the cells were plated at 2000 cells per well in a 96-well tissue culture plate, and were incubated overnight at 37° C. with 5% CO2. The next day, the test compounds were dissolved in 100% dimethyl sulfoxide (DMSO) to yield a 10 mM stock solution. […] The compounds were then serially diluted in medium with 1.2% DMSO. One-fourth final volume of the diluted compounds was transferred to 96 well plates. Test compounds were assayed in duplicate. DMSO was added to a row of “control cells” such that the final concentration of DMSO in each well was 0.3%. Wells to which no cells were added served as the “blank.” Wells to which no inhibitor was added served as “no inhibitor control”. The plates were returned to the incubator, and 5 days post addition of test compound, were analyzed as described below.
(§3) 3-(4,5-Dimethylthiazole-2-yl)-2,5-diphenyl-2H-tetrazolium bromide (thiazolyl blue; MTT) was added to each well to yield a final concentration of 1 mglmL. The plates were then incubated at 37° C. for 3 hours. The plates were centrifuged at 1000 rpm for 5 minutes prior to aspiration of the MTT-containing medium. The MTT-containing medium was then removed and 100 μL 100% EtOH was added to each well to dissolve the resulting formazan metabolite. To ensure complete dissolution, plates were shaken for 15 minutes at room temperature. Absorbencies were read in a microliter plate reader (Molecular Dynamics) at a wavelength of 570 nm with a 650 nm reference. Percent inhibition was calculated by subtracting the absorbency of the blank (no cell) wells from all wells, then subtracting the division of the average absorbency of each test duplicate by the average of the controls from 1.00. Inhibitory concentrations (IC50) were determined from the linear regression of a plot of the logarithm of the concentration versus the percent inhibition.

human Cyclin E/CDK2 = target: T1, human Cyclin E/CDK2 (Homo sapiens, UniProt P24941); test: CDK2 FlashPlate Assay; assay type: biochemical; settings: inhibition of Rb phosphorylation, 33P-ATP, 25 minutes at room temperature
T1 construct: made in house; host or cells: insect cells
Description: To determine inhibition of CDK2 activity, purified recombinant retinoblastoma (Rb) protein was coated on 96 well FlashPlates (New England Nuclear, Boston, Mass.). […] Recombinant active human Cyclin E/CDK2 complexes were partially purified from extracts of insect cells. […] Plates were incubated for 25 minutes at room temperature with shaking, then washed and counted in the Topcount scintillation counter (Packard Instrument Co., Downers Grove, Ill.). Dilutions of test compounds were tested in duplicate in each assay. The percent inhibition of Rb phosphorylation, which is a measure of the inhibition of CDK2 activity, was determined according to the following formula: [formula]
where “test compound” refers to the average counts per minute of the test duplicates, “nonspecific” refers to the average counts per minute when no Cyclin E/CDK2 was added, and “total” refers to the average counts per minute when no compound was added.

[2] = tested on: RKO colon carcinoma cell line; test: Tetrazolium dye proliferation assay, RKO; assay type: cell-based; settings: Colon carcinoma cell, 120 h; MTT, 5 days post addition of test compound, 500 cell per well
Description: as §1, §2, §3
The colon carcinoma line RKO was also obtained from the ATCC and was tested according to the same protocol provided above except that the cell line RKO was plated at 500 cell per well.

Measured: IC50

O=C1Nc2ccc(F)c3c(N4CC[C@@H](O)C4)cc(-c4ccc[nH]4)c1c23 [Example 32]
≤ 10 µM: all assays above
